One substance from patent US8709454B2, “Combination of a microorganism and a phytosphingosine derivative, composition, methods of use” (L'Oreal, priority 2009, dated 2014) can be followed below.

Type in all cases: cell-based
Conditions in all cases: topical 50 μl, 6 hours after treatment, related to G3PDH messenger

The subject of assay [1] is involucrin (INV) gene. The assay can be described thus: RT-qPCR gene expression in Episkin reconstructed epidermis: involucrin. As for the experimental part: (§1) The effects of the following four compositions were tested on the differentiation of Episkin® reconstructed epidermis. • A: formulation support (ethyl alcohol (3%) and water (97%)), • B: lysate (ethyl alcohol (3%), water (87%), lysate (10%)), • C: phytosphingosine salicylate (ethyl alcohol (3%), water (96.998%), phytosphingosine salicylate (0.002%)), and • D: combination in accordance with the invention=(0.002% phytosphingosine salicylate+10% lysate+ethyl alcohol (3%)+water (86.998%)).
(§2) J6 Episkin® reconstructed epidermis were placed in 12-well plates containing 2 ml of a maintenance medium and cultured at 37° C. and 5% CO2 for 24 hours. […]
(§3) These effects were characterized by analysing the expression of the cytokeratin 6B (K6B), cytokeratin 10 (K10) and involucrin (INV) genes using a real-time PCR method (quantitative PCR, qPCR) 6 hours after treatment.
(§4) The expression of the markers selected was evaluated by RT-qPCR on the messenger RNA extracted from the Episkin® reconstructed epidermis of each treatment (the duplicates were pooled before RNA extraction) 6, 24 and 48 hours after treatment. […]
(§5) The incorporation of fluorescence into the amplified DNA is measured continuously during the PCR cycles. This system makes it possible to obtain curves of the fluorescence measurement as a function of the PCR cycles and thus to evaluate a relative expression value for each marker. […]
A general note: In qPCR the cycle at which signal appears reflects the starting amount.

The subject of assay [2] is cytokeratin 6B (K6B) gene. Kind of assay: RT-qPCR gene expression in Episkin reconstructed epidermis: cytokeratin 6B. As for the experimental part:
as §1, §2, §3, §4, §5

Assay [3] has as its system cytokeratin 10 (K10) gene. Kind of assay: RT-qPCR gene expression in Episkin reconstructed epidermis: cytokeratin 10. As for the experimental part:
as §1, §2, §3, §4, §5

Consider “phytosphingosine salicylate [Composition C]”, for which, in assay [1], the INV expression is reported as 146 % of the untreated control. In assay [2], the K6B expression is given as 158 % of the untreated control. Besides, in assay [3], the K10 expression is 122 % of the untreated control.
